Laboratory results published in patent US20100168102A9, “Amide Derivatives as Kinase Inhibitors” (Devgen NV, priority 2005, published 2010).
Like-named read-outs stand apart in the source and are kept apart here.

Tests used:
[1] = target: T1, PKC epsilon (Homo sapiens, UniProt Q02156); experiment: Biochemical assay for PKC epsilon (fluorescence polarization, Protein Kinase C Assay Kit, Red); conditions: Table 2, compounds of Formula XIII
T1 construct: purchased Invitrogen P2282
T1 sequence (Q02156 1-737): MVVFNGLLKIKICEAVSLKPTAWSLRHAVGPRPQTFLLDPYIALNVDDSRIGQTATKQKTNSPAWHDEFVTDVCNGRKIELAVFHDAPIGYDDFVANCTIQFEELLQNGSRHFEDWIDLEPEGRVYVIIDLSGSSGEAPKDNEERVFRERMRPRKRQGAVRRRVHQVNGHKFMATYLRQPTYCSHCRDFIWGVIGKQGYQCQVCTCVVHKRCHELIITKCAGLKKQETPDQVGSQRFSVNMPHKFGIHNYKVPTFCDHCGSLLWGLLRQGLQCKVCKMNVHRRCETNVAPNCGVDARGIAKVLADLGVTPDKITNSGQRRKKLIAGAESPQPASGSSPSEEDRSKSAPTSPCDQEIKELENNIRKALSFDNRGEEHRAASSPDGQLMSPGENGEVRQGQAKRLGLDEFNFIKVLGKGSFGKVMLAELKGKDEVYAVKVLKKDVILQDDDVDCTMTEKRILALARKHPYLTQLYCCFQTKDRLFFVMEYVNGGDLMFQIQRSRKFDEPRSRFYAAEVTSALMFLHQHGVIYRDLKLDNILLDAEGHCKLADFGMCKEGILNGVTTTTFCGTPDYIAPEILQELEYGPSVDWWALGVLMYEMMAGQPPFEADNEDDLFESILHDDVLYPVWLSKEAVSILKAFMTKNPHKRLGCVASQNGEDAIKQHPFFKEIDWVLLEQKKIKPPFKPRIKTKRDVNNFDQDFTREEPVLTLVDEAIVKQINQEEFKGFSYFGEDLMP
Procedure, shortened: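 Read-out was fluorescence-polarization competition between phosphorylated substrate and a rhodamine PKC tracer for an anti-phosphoserine antibody, added with EDTA stop after an 80 min room-temperature kinase reaction with ATP and protein substrate (Mg2+/Ca2+ buffer). Enzyme (10 ng/ml final) was preincubated with compound for 30 min.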

[2] = target: T2, human ROCKα/ROCKII mix (Homo sapiens, UniProt O75116); experiment: Biochemical assay for ROCK (fluorescence polarization, ROCK IMAP Kit); conditions: Table 2, compounds of Formula XIII
T2 construct: purchased Upstate Biotechnology 14-451
T2 sequence (O75116 11-552 limits assumed): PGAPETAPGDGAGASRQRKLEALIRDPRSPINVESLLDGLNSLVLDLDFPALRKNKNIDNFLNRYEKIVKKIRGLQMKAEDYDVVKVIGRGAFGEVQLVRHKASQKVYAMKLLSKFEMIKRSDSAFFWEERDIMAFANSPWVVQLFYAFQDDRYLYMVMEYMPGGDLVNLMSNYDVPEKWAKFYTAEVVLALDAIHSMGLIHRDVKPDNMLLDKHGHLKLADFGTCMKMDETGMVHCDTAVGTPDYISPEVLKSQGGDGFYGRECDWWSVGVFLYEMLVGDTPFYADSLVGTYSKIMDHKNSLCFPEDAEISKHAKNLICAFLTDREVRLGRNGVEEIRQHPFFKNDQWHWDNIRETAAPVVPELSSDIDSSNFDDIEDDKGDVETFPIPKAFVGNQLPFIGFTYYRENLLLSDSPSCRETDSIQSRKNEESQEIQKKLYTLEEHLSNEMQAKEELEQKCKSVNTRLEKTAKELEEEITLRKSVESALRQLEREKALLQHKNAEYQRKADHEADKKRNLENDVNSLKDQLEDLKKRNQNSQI

IC50 ([1]; read-out: IC50 μM PKCε) [µM]	IC50 [2] [µM]	IC50 ([1]; IC50 μM PKCε) [µM]	SMILES
5 to 50	0.5 to 5	–	NC(CNC(=O)Cc1ccc2ccccc2c1)c1ccc(C(=O)Nc2ccncc2)cc1 (stereo not shown) [Compound 135, 4-[1-Amino-2-(2-naphtalen-2-yl-acetylamino)-ethyl]-N-pyridin-4-yl-bennzamide]
5 to 50	0.5 to 5	–	NC(CNC(=O)C(c1ccccc1)C1CCCC1)c1ccc(C(=O)Nc2ccncc2)cc1 (stereo not shown) [Compound 136, 4-[1-Amino-2-(2-cyclopentyl-2-phenyl-acetylamino)-ethyl]-N-pyridin-4-yl-bennzamide]
0.05 to 0.5	0.5 to 5	–	NC(CNC(=O)C1(c2ccccc2)CC1)c1ccc(C(=O)Nc2ccncc2)cc1 (stereo not shown) [Compound 137, 4-{1-Amino-2-[(1-phenyl-cyclopropanecarbonyl)-amino]-ethyl}-N-pyridin-4-yl-benzamide]
5 to 50	0.5 to 5	–	COc1ccccc1CC(=O)NCC(N)c1ccc(C(=O)Nc2ccncc2)cc1 (stereo not shown) [Compound 138, 4-{1-amino-2-[2-(2-methoxy-phenyl)-acetylamino]-ethyl}-N-pyridin-4-yl-benzamide]
0.5 to 5	0.05 to 0.5	–	COc1cccc(CC(=O)NCC(N)c2ccc(C(=O)Nc3ccncc3)cc2)c1 (stereo not shown) [Compound 139, 4-{1-amino-2-[2-(3-methoxy-phenyl)-acetylamino]-ethyl}-N-pyridin-4-yl-benzamide]
5 to 50	0.05 to 0.5	–	COc1ccc(CC(=O)NCC(N)c2ccc(C(=O)Nc3ccncc3)cc2)cc1 (stereo not shown) [Compound 140, 4-{1-amino-2-[2-(4-methoxy-phenyl)-acetylamino]-ethyl}-N-pyridin-4-yl-benzamide]
5 to 50	0.05 to 0.5	–	NC(CNC(=O)Cc1ccc2c(c1)OCO2)c1ccc(C(=O)Nc2ccncc2)cc1 (stereo not shown) [Compound 141, 4-{1-amino-2-(2-benzo[1,3]dioxol-5-yl-acetylamino)-ethyl]-N-pyridin-4-yl-benzamide]
0.5 to 5	0.05 to 0.5	–	Cc1ccccc1CC(=O)NCC(N)c1ccc(C(=O)Nc2ccncc2)cc1 (stereo not shown) [Compound 142, 4-{1-Amino-2-[2-(2-methyl-phenyl)-acetylamino]-ethyl}-N-pyridin-4-yl-benzamide]
0.5 to 5	0.05 to 0.5	–	Cc1cccc(CC(=O)NCC(N)c2ccc(C(=O)Nc3ccncc3)cc2)c1 (stereo not shown) [Compound 143, 4-{1-Amino-2-[2-(3-methyl-phenyl)-acetylamino]-ethyl}-N-pyridin-4-yl-benzamide]
0.5 to 5	0.5 to 5	–	Cc1ccc(C)c(CC(=O)NCC(N)c2ccc(C(=O)Nc3ccncc3)cc2)c1 (stereo not shown) [Compound 144, 4-{1-Amino-2-[2-(2,5-dimethyl-phenyl)-aceylamino]-ethyl}-N-pyridin-4-yl-benzamide]
0.5 to 5	0.05 to 0.5	–	Cc1ccc(CC(=O)NCC(N)c2ccc(C(=O)Nc3ccncc3)cc2)cc1 (stereo not shown) [Compound 145, 4-{1-Amino-2-[2-(4-methyl-phenyl)-acetylamino]-ethyl}-N-pyridin-4-yl-benzamide]
5 to 50	0.5 to 5	–	NC(CNC(=O)Cc1ccc(-c2ccccc2)cc1)c1ccc(C(=O)Nc2ccncc2)cc1 (stereo not shown) [Compound 146, 4-[1-Amino-2-(2-biphenyl-4-yl-acetylamino)-ethyl]-N-pyridin-4-yl-benzamide]
0.5 to 5	0.05 to 0.5	–	NC(CNC(=O)Cc1cccc(Cl)c1)c1ccc(C(=O)Nc2ccncc2)cc1 (stereo not shown) [Compound 147, 4-{1-Amino-2-[2-(3-chloro-phenyl)-acetylamino]-ethyl}-N-pyridin-4-yl-benzamide]
0.05 to 0.5	0.05 to 0.5	–	NC(CNC(=O)Cc1ccc(F)cc1)c1ccc(C(=O)Nc2ccncc2)cc1 (stereo not shown) [Compound 148, 4-{1-Amino-2-[2-(4-fluoro-phenyl)-acetylamino]-ethyl}-N-pyridin-4-yl-benzamide]
–	0.5 to 5	0.5 to 5	NC(CNC(=O)Cc1c(F)cccc1F)c1ccc(C(=O)Nc2ccncc2)cc1 (stereo not shown) [Compound 149, 4-{1-Amino-2-[2-(2,6-difluororo-phenyl)-acetylamino]-ethyl}-N-pyridin-4-yl-benzamide]
5 to 50	0.5 to 5	–	NC(CNC(=O)Cc1ccccn1)c1ccc(C(=O)Nc2ccncc2)cc1 (stereo not shown) [Compound 150, 4-[1-Amino-2-(2-pyridin-2-yl-acetylamino)-ethyl]-N-pyridin-4-yl-benzamide]

IC50 ([1]; read-out: IC50 μM PKCε) [µM]	IC50 [2] [µM]	IC50 ([1]; IC50 μM PKCε) [µM]	SMILES
5 to 50	0.5 to 5	–	NC(CNC(=O)Cc1ccncc1)c1ccc(C(=O)Nc2ccncc2)cc1 (stereo not shown) [Compound 151, 4-[1-Amino-2-(2-pyridin-4-yl-acetylamino)-ethyl]-N-pyridin-4-yl-benzamide]
0.5 to 5	0.05 to 0.5	–	NC(CNC(=O)Cc1c[nH]c2ccccc12)c1ccc(C(=O)Nc2ccncc2)cc1 (stereo not shown) [Compound 152, 4-[1-Amino-2-(2-1H-indol-3-yl-acetylamino)-ethyl]-N-pyridin-4-yl-benzamide]
0.5 to 5	0.05 to 0.5	–	NC(CNC(=O)Cc1cccs1)c1ccc(C(=O)Nc2ccncc2)cc1 (stereo not shown) [Compound 153, 4-[1-amino-2-(2-thiophen-2-yl-acetylamino)-ethyl]-N-pyridin-4-yl-benzamide]
5 to 50	0.05 to 0.5	–	NC(CNC(=O)Cc1csc(-c2ccccc2)n1)c1ccc(C(=O)Nc2ccncc2)cc1 (stereo not shown) [Compound 154, 4-{1-Amino-2-[2-(2-phenyl-thiazol-4-yl)-acetylamino]-ethyl}-N-pyridin-4-yl-benzamide]
0.5 to 5	0.5 to 5	–	NC(CNC(=O)Cc1csc(Nc2ccccc2)n1)c1ccc(C(=O)Nc2ccncc2)cc1 (stereo not shown) [Compound 155, 4-{1-Amino-2-[2-(2-phenylamino-thiazol-4-yl)-acetylamino]-ethyl}-N-pyridin-4-yl-benzamide]
0.05 to 0.5	0.05 to 0.5	–	NC(CNC(=O)COc1ccccc1)c1ccc(C(=O)Nc2ccncc2)cc1 (stereo not shown) [Compound 156, 4-[1-Amino-2-(2-phenoxy-acetylamino)-ethyl]-N-pyridin-4-yl-benzamide]
0.05 to 0.5	0.05 to 0.5	–	NC(CNC(=O)COc1ccc(F)cc1)c1ccc(C(=O)Nc2ccncc2)cc1 (stereo not shown) [Compound 157, 4-{1-Amino-2-[2-(4-fluoro-phenoxy)-acetylamino]-ethyl}-N-pyridin-4-yl-benzamide]
0.5 to 5	0.05 to 0.5	–	CCC(Oc1ccccc1)C(=O)NCC(N)c1ccc(C(=O)Nc2ccncc2)cc1 (stereo not shown) [Compound 158, 4-[1-Amino-2-(2-phenoxy-butyrylamino)-ethyl]-N-pyridin-4-yl-benzamide]
0.5 to 5	0.05 to 0.5	–	Cc1cc(Cl)ccc1OC(C)C(=O)NCC(N)c1ccc(C(=O)Nc2ccncc2)cc1 (stereo not shown) [Compound 159, 4-{1-Amino-2-[2-(4-chloro-2-methyl-phenoxy)-propionylamino]-ethyl}-N-pyridin-4-yl-benzamide]
5 to 50	0.05 to 0.5	–	NC(CNC(=O)CC(c1ccccc1)c1ccccc1)c1ccc(C(=O)Nc2ccncc2)cc1 (stereo not shown) [Compound 160, 4-[1-Amino-2-(3,3-diphenyl-propionylamino)-ethyl]-N-pyridin-4-yl-benzamide]
0.5 to 5	0.05 to 0.5	–	NC(CNC(=O)C1Cc2ccccc21)c1ccc(C(=O)Nc2ccncc2)cc1 (stereo not shown) [Compound 161, Bicyclo[4.2.0]octa-1,3,5-triene-7-carboxylic acid {2-amino-2-[4-(pyridin-4-ylcarbamoyl)-phenyl]-ethyl}-amide]
0.5 to 5	0.05 to 0.5	–	NC(CNC(=O)CCc1ccccc1)c1ccc(C(=O)Nc2ccncc2)cc1 (stereo not shown) [Compound 162]
0.05 to 0.5	0.05 to 0.5	–	NC(CNC(=O)CCc1ccc(F)cc1)c1ccc(C(=O)Nc2ccncc2)cc1 (stereo not shown) [Compound 163, 4-{1-amino-2-[3-(4-fluoro-phenyl)-propionylamino]-ethyl}-N-pyridin-4-yl-benzamide]
0.5 to 5	0.5 to 5	–	NC(CNC(=O)C1CCc2ccccc2C1)c1ccc(C(=O)Nc2ccncc2)cc1 (stereo not shown) [Compound 164, 1,2,3,4-Tetrahydro-naphtalene-2-carboxylic acid {2-amino-2-[4-(pyridin-4-ylcarbamoyl)-phenyl]-ethyl}-amide]
0.5 to 5	0.5 to 5	–	CC1=C(C(=O)NCC(N)c2ccc(C(=O)Nc3ccncc3)cc2)Cc2ccccc21 (stereo not shown) [Compound 165, 3-Methyl-1H-indene-2-carboxylic acid {2-amino-2-[4-(pyridin-4-ylcarbamoyl)-phenyl]-ethyl}-amide]
5 to 50	0.5 to 5	–	NC(CNC(=O)CCc1cccnc1)c1ccc(C(=O)Nc2ccncc2)cc1 (stereo not shown) [Compound 166, 4-[1-Amino-2-(3-pyridin-3-yl-propionylamino)-ethyl]-N-pyridin-4-yl-benzamide]
